Where two headings read alike, the source gives them in different places.
Key:
CDK4 = biological target: T1, CDK4 (Homo sapiens, UniProt P11802); assay: CDK4 percentage degradation in Calu-1 cells (immunoblotting); assay type: cell-based; details: for inhibition at 0.2 µM: read-out: CDK4 Degradation (200 nM); for inhibition at 10 µM: read-out: CDK4 Degradation (10 μM)
T1 construct: endogenous in cells; host or cells: Calu-1
Procedure, shortened: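 CDK4 degradation was measured by immunoblotting. Cells were washed in cold PBS and lysed in RIPA buffer with inhibitors for 30 min at 4° C., then spun at 13,000 rpm to clear. After BCA protein determination, lysates were heated at 99° C. for 5 min in Laemmli buffer, resolved on SDS-PAGE, imaged on a ChemiDoc MP with ECL substrate, and band intensities quantified.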

cyclin D1 = assay: Cyclin D1 percentage degradation in Calu-1 cells (immunoblotting); assay type: cell-based; details: 16 hours
Procedure, shortened: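 Cyclin D1 degradation was assessed by western blot. Clarified lysates, obtained by RIPA lysis with inhibitors and centrifugation at 13,000 rpm, were normalized by BCA protein assay and separated by SDS-PAGE. Bands were detected with Western ECL Substrate on a Bio-Rad ChemiDoc MP Imaging system and quantified in Image Lab software to derive percentage degradation.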

T1 sequence (P11802 2-303 limits assumed): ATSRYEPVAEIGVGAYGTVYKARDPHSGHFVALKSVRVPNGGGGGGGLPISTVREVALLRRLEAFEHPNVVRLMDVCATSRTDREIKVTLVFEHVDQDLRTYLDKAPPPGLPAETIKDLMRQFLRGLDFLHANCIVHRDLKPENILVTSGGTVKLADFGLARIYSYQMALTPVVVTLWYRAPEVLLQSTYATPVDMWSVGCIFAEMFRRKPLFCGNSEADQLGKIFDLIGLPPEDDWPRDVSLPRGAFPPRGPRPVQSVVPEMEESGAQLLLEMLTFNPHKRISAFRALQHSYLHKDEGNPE
T1 sequence (P24385 whole entry partner): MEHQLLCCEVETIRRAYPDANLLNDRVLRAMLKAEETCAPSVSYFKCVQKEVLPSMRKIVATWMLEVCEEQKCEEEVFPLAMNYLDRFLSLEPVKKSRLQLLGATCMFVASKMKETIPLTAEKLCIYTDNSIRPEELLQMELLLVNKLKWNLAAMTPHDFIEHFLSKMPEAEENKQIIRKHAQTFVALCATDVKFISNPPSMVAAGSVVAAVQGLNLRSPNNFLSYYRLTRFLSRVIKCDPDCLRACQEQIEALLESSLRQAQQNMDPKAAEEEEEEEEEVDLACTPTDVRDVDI
T1 sequence (Q16531 2-1140 limits assumed, further chain): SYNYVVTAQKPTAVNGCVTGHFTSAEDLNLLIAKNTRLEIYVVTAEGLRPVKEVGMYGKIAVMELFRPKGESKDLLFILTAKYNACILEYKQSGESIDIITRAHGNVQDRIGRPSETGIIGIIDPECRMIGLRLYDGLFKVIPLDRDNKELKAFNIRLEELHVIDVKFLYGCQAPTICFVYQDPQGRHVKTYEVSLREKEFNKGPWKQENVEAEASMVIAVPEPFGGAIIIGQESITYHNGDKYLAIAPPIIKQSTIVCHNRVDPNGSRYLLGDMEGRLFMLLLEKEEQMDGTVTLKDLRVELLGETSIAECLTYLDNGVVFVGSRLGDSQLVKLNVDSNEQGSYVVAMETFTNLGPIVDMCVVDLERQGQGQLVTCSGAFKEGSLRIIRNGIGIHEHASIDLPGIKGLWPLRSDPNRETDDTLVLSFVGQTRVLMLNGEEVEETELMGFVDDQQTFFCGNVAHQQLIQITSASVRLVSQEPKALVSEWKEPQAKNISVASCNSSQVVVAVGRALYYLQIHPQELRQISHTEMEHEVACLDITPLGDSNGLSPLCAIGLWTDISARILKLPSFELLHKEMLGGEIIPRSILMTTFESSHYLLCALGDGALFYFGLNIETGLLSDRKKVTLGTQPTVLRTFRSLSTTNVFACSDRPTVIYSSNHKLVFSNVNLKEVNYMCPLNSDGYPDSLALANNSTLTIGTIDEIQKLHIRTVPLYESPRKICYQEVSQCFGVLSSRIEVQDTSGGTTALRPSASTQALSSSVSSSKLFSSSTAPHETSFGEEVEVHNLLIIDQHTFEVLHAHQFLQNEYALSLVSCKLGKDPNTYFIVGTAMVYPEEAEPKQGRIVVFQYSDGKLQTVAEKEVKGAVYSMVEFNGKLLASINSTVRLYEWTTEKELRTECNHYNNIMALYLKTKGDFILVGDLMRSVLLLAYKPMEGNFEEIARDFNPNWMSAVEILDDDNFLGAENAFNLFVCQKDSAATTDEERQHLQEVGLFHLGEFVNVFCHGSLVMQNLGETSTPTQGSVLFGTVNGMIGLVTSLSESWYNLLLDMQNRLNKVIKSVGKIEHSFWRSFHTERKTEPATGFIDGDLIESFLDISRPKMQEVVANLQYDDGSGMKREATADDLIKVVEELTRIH

| inhibition at 0.2 µM (CDK4; Calu-1 cells, 200 nM, 16 hours) [%] | inhibition at 10 µM (CDK4; Calu-1 cells, 16 hours) [%] | SMILES | CyclinD1 Degradation (200 nM) (cyclin D1) | inhibition at 0.2 µM (CDK4; Calu-1, 16 h) [%] | CyclinD1 Degradation (10 μM) (cyclin D1) |
| --- | --- | --- | --- | --- | --- |
| > 80 | – | CNc1ccc(C(=O)Nc2ccc(C)cn2)c(NC(=O)CCOCCOCCNC(=O)CN2CCN(c3ccc(Nc4ncc5c(C)c(C(C)=O)c(=O)n(C6CCCC6)c5n4)nc3)CC2)c1 [CPD-339, 2-(3-(2-(2-(2-(4-(6-((6-Acetyl-8-cyclopentyl-5-methyl-7-oxo-7,8-dihydropyrido[2,3-d]pyrimidin-2-yl)amino)pyridin-3-yl)piperazin-1-yl)acetamido)ethoxy)ethoxy)propanamido)-4-(methylamino)-N-(5-methylpyridin-2-yl)benzamide] | A (protein percentage degradation >=80%) | – | – |
| < 30 | – | CC(=O)c1c(C)c2cnc(Nc3ccc(N4CCN(CC(=O)NCCNc5ccc(C)c(C(=O)Nc6nc(C)c(C)s6)c5)CC4)cn3)nc2n(C2CCCC2)c1=O [CPD-093, 5-((2-(2-(4-(6-((6-Acetyl-8-cyclopentyl-5-methyl-7-oxo-7,8-dihydropyrido[2,3-d]pyrimidin-2-yl)amino)pyridin-3-yl)piperazin-1-yl)acetamido)ethyl)amino)-N-(4,5-dimethylthiazol-2-yl)-2-methylbenzamide] | D (protein percentage degradation <30%) | – | – |
| > 80 | – | CC(=O)c1c(C)c2cnc(Nc3ccc(N4CCN(CC(=O)NCCOCCOCCC(=O)Nc5cc(C)ccc5C(=O)Nc5nc(C)c(C)s5)CC4)cn3)nc2n(C2CCCC2)c1=O [CPD-149, 2-(3-(2-(2-(2-(4-(6-((6-Acetyl-8-cyclopentyl-5-methyl-7-oxo-7,8-dihydropyrido[2,3-d]pyrimidin-2-yl)amino)pyridin-3-yl)piperazin-1-yl)acetamido)ethoxy)ethoxy)propanamido)-N-(4,5-dimethylthiazol-2-yl)-4-methylbenzamide] | A (protein percentage degradation >=80%) | – | – |
| < 30 | – | CC(=O)c1c(C)c2cnc(Nc3ccc(N4CCN(C(=O)CCCCCCNc5ccc(C)c(C(=O)Nc6nc(C)c(C)s6)c5)CC4)cn3)nc2n(C2CCCC2)c1=O [CPD-109, 5-((7-(4-(6-((6-Acetyl-8-cyclopentyl-5-methyl-7-oxo-7,8-dihydropyrido[2,3-d]pyrimidin-2-yl)amino)pyridin-3-yl)piperazin-1-yl)-7-oxoheptyl)amino)-N-(4,5-dimethylthiazol-2-yl)-2-methylbenzamide] | D (protein percentage degradation <30%) | – | – |
| – | 30 to 50 | Cc1nc(NC(=O)c2ccccc2NC(=O)CCNC(=O)CN2CCN(c3ccc(Nc4ncc5cc(C(=O)N(C)C)n(C6CCCC6)c5n4)nc3)CC2)sc1C [CPD-287, 7-Cyclopentyl-2-((5-(4-(2-((3-((2-((4,5-dimethylthiazol-2-yl)carbamoyl)phenyl)amino)-3-oxopropyl)amino)-2-oxoethyl)piperazin-1-yl)pyridin-2-yl)amino)-N,N-dimethyl-7H-pyrrolo[2,3-d]pyrimidine-6-carboxamide] | – | – | A (protein percentage degradation >= 80%) |
| 50 to 80 | – | CC(=O)c1c(C)c2cnc(Nc3ccc(N4CCN(CC(=O)NCCCCCCCCC(=O)Nc5ccccc5C(=O)Nc5nc(C)c(C)s5)CC4)cn3)nc2n(C2CCCC2)c1=O [CPD-113, 2-(9-(2-(4-(6-((6-Acetyl-8-cyclopentyl-5-methyl-7-oxo-7,8-dihydropyrido[2,3-d]pyrimidin-2-yl)amino)pyridin-3-yl)piperazin-1-yl)acetamido)nonanamido)-N-(4,5-dimethylthiazol-2-yl)benzamide] | A (protein percentage degradation >=80%) | – | – |
| – | < 30 | Cc1nc(NC(=O)c2ccccc2NC(=O)CCNC(=O)CN2CCN(c3ccc(Nc4ncc(F)c(-c5cc(F)c6nc(C)n(C(C)C)c6c5)n4)nc3)CC2)sc1C [CPD-301, N-(4,5-Dimethylthiazol-2-yl)-2-(3-(2-(4-(6-((5-fluoro-4-(4-fluoro-1-isopropyl-2-methyl-1H-benzo[d]imidazol-6-yl)pyrimidin-2-yl)amino)pyridin-3-yl)piperazin-1-yl)acetamido)propanamido)benzamide] | – | – | D (protein percentage degradation < 30%) |

The remaining lines, values behind:

| SMILES | inhibition at 0.2 µM (CDK4; Calu-1 cells, 200 nM, 16 hours) [%] | inhibition at 10 µM (CDK4; Calu-1 cells, 16 hours) [%] | CyclinD1 Degradation (200 nM) (cyclin D1) | inhibition at 0.2 µM (CDK4; Calu-1, 16 h) [%] | CyclinD1 Degradation (10 μM) (cyclin D1) |
| --- | --- | --- | --- | --- | --- |
| CC(=O)c1c(C)c2cnc(Nc3ccc(N4CCN(CC(=O)NCCCCCCCCCNC(=O)COc5ccc(C(=O)Nc6ncc(C)s6)c(C)c5)CC4)cn3)nc2n(C2CCCC2)c1=O [CPD-038, 4-(2-((9-(2-(4-(6-((6-Acetyl-8-cyclopentyl-5-methyl-7-oxo-7,8-dihydropyrido[2,3-d]pyrimidin-2-yl)amino)pyridin-3-yl)piperazin-1-yl)acetamido)nonyl)amino)-2-oxoethoxy)-2-methyl-N-(5-methylthiazol-2-yl)benzamide] | < 30 | – | D (protein percentage degradation <30%) | – | – |
| CC(=O)c1c(C)c2cnc(Nc3ccc(N4CCN(CC(=O)NCCOCCOCCC(=O)Nc5c(C(=O)Nc6ccc(C)cn6)ccc6[nH]ncc56)CC4)cn3)nc2n(C2CCCC2)c1=O [CPD-359] | 50 to 80 | – | A (protein percentage degradation >=80%) | – | – |
| CC(=O)c1c(C)c2cnc(Nc3ccc(N4CCN(CC(=O)NCCOCCOCCOCCOCCOCCNc5ccc(C(=O)Nc6ncc(Cl)s6)c(C)c5)CC4)cn3)nc2n(C2CCCC2)c1=O [CPD-005, 4-((1-(4-(6-((6-Acetyl-8-cyclopentyl-5-methyl-7-oxo-7,8-dihydropyrido[2,3-d]pyrimidin-2-yl)amino)pyridin-3-yl)piperazin-1-yl)-2-oxo-6,9,12,15,18-pentaoxa-3-azaicosan-20-yl)amino)-N-(5-chlorothiazol-2-yl)-2-methylbenzamide] | < 30 | – | D (protein percentage degradation <30%) | – | – |
| CC(=O)c1c(C)c2cnc(Nc3ccc(N4CCN(C(=O)CCOCCOCCOCCOCCOCCOCCC(=O)Nc5ccccc5C(=O)Nc5nc(C)c(C)s5)CC4)cn3)nc2n(C2CCCC2)c1=O [CPD-182, 22-(4-(6-((6-Acetyl-8-cyclopentyl-5-methyl-7-oxo-7,8-dihydropyrido[2,3-d]pyrimidin-2-yl)amino)pyridin-3-yl)piperazin-1-yl)-N-(2-((4,5-dimethylthiazol-2-yl)carbamoyl)phenyl)-22-oxo-4,7,10,13,16,19-hexaoxadocosanamide] | – | – | D (protein percentage degradation <30%) | < 30 | – |
| CC(=O)c1c(C)c2cnc(Nc3ccc(N4CCN(C(=O)CCOCCOCCOCCOCCNc5cccc(C(=O)Nc6nc(C)c(C)s6)c5C)CC4)cn3)nc2n(C2CCCC2)c1=O [CPD-123, 3-((15-(4-(6-((6-Acetyl-8-cyclopentyl-5-methyl-7-oxo-7,8-dihydropyrido[2,3-d]pyrimidin-2-yl)amino)pyridin-3-yl)piperazin-1-yl)-15-oxo-3,6,9,12-tetraoxapentadecyl)amino)-N-(4,5-dimethylthiazol-2-yl)-2-methylbenzamide] | – | – | A (protein percentage degradation >=80%) | 50 to 80 | – |
| CC(=O)c1c(C)c2cnc(Nc3ccc(N4CCN(C(=O)CCOCCOCCOCCOCCOCCC(=O)Nc5ccccc5C(=O)Nc5nc(C)c(C)s5)CC4)cn3)nc2n(C2CCCC2)c1=O [CPD-163, 19-(4-(6-((6-Acetyl-8-cyclopentyl-5-methyl-7-oxo-7,8-dihydropyrido[2,3-d]pyrimidin-2-yl)amino)pyridin-3-yl)piperazin-1-yl)-N-(2-((4,5-dimethylthiazol-2-yl)carbamoyl)phenyl)-19-oxo-4,7,10,13,16-pentaoxanonadecanamide] | – | – | A (protein percentage degradation >=80%) | 50 to 80 | – |

— patent US20250235543A1, “MODIFIED PROTEINS AND PROTEIN DEGRADERS” (Cullgen (Shanghai), Inc., priority 2021, published 2025)
